Values after ≈ are worked out from the molar mass of the structure shown. Like-named read-outs stand apart in the source and are kept apart here.
Key:
[1] = tested on: Staphylococcus aureus (ATCC19636); assay: MIC broth microdilution assay; type: cell-based
[2] = tested on: Pseudomonas aeruginosa ATCC 27853; assay: MIC broth microdilution assay; type: cell-based; details: for MIC: ATCC27853; for antibacterial activity: Pseudomonas aeruginosa (ATCC278533)
Description: (§1) For the purpose of antimicrobial activity evaluation of liposome encapsulated nosiheptide, bacteria strain was cultivated in tryptic soy broth (Difco, Becton, Dickinson, Sparks, MD) or brain heart infusion broth (Difco, Becton, Dickinson, Sparks, MD) at 37° C. for 16˜18 hours to the stationary phase. After that, 1000 μl of inoculums were treated to 15 ml tryptic soy broth medium and incubated at 37° C. for 3˜4 hours. Bacteria counts were determined to 5×10^5 CFU/ml for antimicrobial activity via absorbance value of OD600 (1 OD600=1×10^8 CFU/ml) by spectrophotometer. (Ultraspec 2100 Pro, UV/Visible spectrophotometer, Biochrom, Massachusetts, USA)
(§2) The minimum inhibitory concentration values of peptides and liposome encapsulated peptides were evaluated by standard broth microdilution assay which was referred to the guideline of the Clinical and Laboratory Standards Institute (CLSI) (M27-A4., C.a.L.S.I.a.s.t.e.C.d., Reference method for broth dilution antifungal susceptibility testing of yeasts. Clinical and Laboratory Standards Institute, Wayne, PA., 2017). MIC assays were carried out with initial bacterial inoculum of 5×10^5 colony forming units (CFU/ml) in suitable medium. Peptides and liposome encapsulated peptides were added to polystyrene 96-well plates with serial dilution. Vancomycin-Resistant Staphylococcus aureus (VRSA01), Staphylococcus aureus (ATCC29213), Staphylococcus aureus (ATCC33591), Pseudomonas aeruginosa (ATCC278533) were cultivated in TSB broth. MICs was preliminarily defined as the lowest concentration of peptides which inhibited the 90% visible growth of bacteria.
(§3) The concentration-diluted peptide was treated 1 μl in 96-well plates. Subsequently, 99 μl medium which containing 5×10^5 CFU/ml bacteria inoculum were loaded individually in each wells, the serial-diluted concentration of peptide were from 8 to 0.0625 μg/ml. Evaluation of bacterial growth were performed by measuring the OD at 600 nm in a microplate reader (TECAN, Sunrise™) over 16 hours at 37° C. Medium-treated wells were used as the control, and all experiments were carried out in triplicate.

[3] = tested on: Staphylococcus aureus (ATCC29213); assay: MIC broth microdilution assay; type: cell-based
Description: as §1, §2, §3

[4] = tested on: Staphylococcus aureus (ATCC33591); assay: MIC broth microdilution assay; type: cell-based
Description: as §1, §2, §3

[5] = tested on: Vancomycin-Resistant Staphylococcus aureus (VRSA01); assay: MIC broth microdilution assay; type: cell-based
Description: as §1, §2, §3

[6] = tested on: VRSA 01; assay: Time-kill analysis; type: cell-based, Staphylococcus aureus; details: ¼×MIC
Description: The antimicrobial activity of nosiheptide and nosiheptide liposome against VRSA 01 were assessed by time-kill analysis. VRSA 01 was cultured in TSB medium overnight. After that, fresh TSB was inoculated for growth to mid-logarithmic phase. Bacteria was added at starting inoculum of 5×10^9 CFU/ml. Nosiheptide and nosiheptide liposome were added to final concentrations with 1×MIC and ¼×MIC, the value of MICs were determined in previous experiments. Bacteria with only medium was regarded as the grown control. The cultures were incubated in 37° C. shaking incubator, and aliquots were removed from each tube at 1, 2, 4, 8, 24 hours and serially diluted for CFU enumeration on TSA plates. To compare rates of antibiotic killing, the decline of viable bacteria (Log10 CFU/ml) was evaluated at the measured time points. Experiments were repeated independently in triplicate. The lower limit of detection for the colony counts was 2 log10 CFU/ml.

[7] = tested on: A549 cells; assay: MTT cell viability assay; type: cell-based; details: Homo sapiens, A549 lung cancer cells, 24 h
Description: (§4) The MTT assay was performed to determine cell viability. 5×10^3 cells per well with 100 μl cell medium were plated in 96-well plates, incubating for 24 hours. Then, the cell medium in plates was removed and each well was treated medium with free nosiheptide or liposome encapsulated nosiheptide in serial-diluted concentration from 3.125 to 50 μM. The medium with PBS buffer was regarded as the control group. After incubating 24 hours, the medium was removed and 100 μl medium-diluted 10% MTT was added in the 96 well plate. After incubation for 3 hours, the MTT solution was removed and the residual formazan crystal was dissolved with 100 μl DMSO (Dimethyl sulfoxide, Sigma Aldrich). The cell viability was determined by measuring the absorbance at 570 nm using ELISA Reader (TECAN, Sunrise™), and the data was calculated by the following formula: […]
(§5) The range of IC50 values was obtained by observing the curve, and all experiments were carried out in triplicate.

[8] = tested on: HFW cells; assay: MTT cell viability assay; type: cell-based; details: HFW normal cells, 24 h
Description: as §4, §5

[9] = tested on: Staphylococcus aureus (ATCC33591); assay: Murine model of i.v. S. aureus infection (survival); type: in vivo, mice; details: 20 mg/kg i.v. at 1 and 8 hours after infection
Description: Establishment of murine injection model of was assessed to test in vivo efficacy of nosiheptide liposome. Eight-week-old female ICR mice (LASCO, Taipei, Taiwan) were injected i.v. with 1×10^9 CFU/ml of Staphylococcus aureus (ATCC33591) strain in PBS buffer (pH=7.42).

| Structure (SMILES) | antibacterial activity [1] | MIC ([1]; read-out: MIC) [µg/mL] | MIC ([2]; Pseudomonas aeruginosa ATCC 27853, read-out: MIC) [µg/mL] | antibacterial activity [2] | MIC ([3]; read-out: MIC) [µg/mL] | MIC ([4]; read-out: MIC) [µg/mL] | MIC ([5]; Vancomycin Resistant Staphylococcus aureus 01, read-out: MIC) [µg/mL] | time to 2-log kill [6] [hours] | IC50 [7] [µM] | IC50 [8] [µM] | survival rate ([9]; end of study (7 days)) [%] | mice died during the first two days ([9]; first two days) | MIC [1] [µg/mL] | MIC ([2]; Pseudomonas aeruginosa) [µg/mL] | MIC [3] [µg/mL] | MIC [4] [µg/mL] | MIC ([5]; Staphylococcus aureus) [µg/mL] |
| --- | --- | --- | --- | --- | --- | --- | --- | --- | --- | --- | --- | --- | --- | --- | --- | --- | --- |
| C=C(NC(=O)c1csc(-c2nc3c(cc2O)-c2nc(cs2)C(=O)NC(C(C)O)C(=O)N/C(=C\C)c2nc(cs2)C(=O)NC2CC(O)C(=O)OCc4cccc5[nH]c(c(C)c45)C(=O)SCC(NC(=O)c4csc2n4)c2nc-3cs2)n1)C(N)=O (stereo not shown) [Nosiheptide Free, Nosiheptide] | no antibacterial activity | > 8 | > 8 | no antibacterial activity | 0.125 (≈ 0.102 µM) | 0.0625 (≈ 0.0511 µM) | 0.0625 (≈ 0.0511 µM) | 4 | 26.2 ± 5.26 | 28.3 ± 9.23 | 62.5 | ⅜ |  |  |  |  |  |
| C=C(NC(=O)C(=C)NC(=O)c1csc(C2=N[C@@H]3c4csc(n4)[C@H]4NC(=O)c5csc(n5)[C@H]([C@](C)(O)[C@@H](C)O)NC(=O)[C@H]5CSC(=N5)/C(=C/C)NC(=O)[C@H]([C@@H](C)O)NC(=O)c5csc(n5)[C@]3(CC2)NC(=O)[C@H](C)NC(=O)C(=C)NC(=O)[C@H](C)NC(=O)[C@H]([C@@H](C)CC)N[C@@H]2C=Cc3c([C@H](C)O)cc(nc3[C@H]2O)C(=O)O[C@@H]4C)n1)C(N)=O [Thiostrepton Free, Thiostrepton] | no antibacterial activity |  |  | no antibacterial activity |  |  |  |  |  |  |  |  | > 8 | > 8 | 0.625 (≈ 0.375 µM) | 0.625 (≈ 0.375 µM) | 0.25 (≈ 0.15 µM) |

— patent US12673025B2, “Pegylated liposomes and uses thereof” (LT BIOPHARMA INC., priority 2024, dated 2026)
